Test [1] concerns Asterias rubens. The note with it: cited from earlier work. The source says: (§1) Extra-oral feeding in starfish requires relaxation of muscle in the wall of the cardiac stomach and in intrinsic and extrinsic retractor strands to enable stomach eversion. Then when external digestion and ingestion of prey tissue is completed, contraction of the musculature enables cardiac stomach retraction ([Anderson, 1954]). Previous studies have identified neuropep ...

The test system of test [2] is cardiac stomach preparations. The note with it: cited from earlier work.
Excerpt: as §1

For test [3], the system named is Asterias rubens. The note with it: injected in vivo; ref Tinoco et al., 2018; cited from earlier work. The source says: The in vivo effect of SK/CCK-type neuropeptides in triggering cardiac stomach retraction is indicative of a role in physiological mechanisms that control termination of feeding behaviour in starfish. […] Accordingly, here we observed that starfish injected with SK/CCK-type neuropeptides took longer to enclose prey compared to control animals injected with water. Further ...

Another test concerns the target T1, ArSK/CCKR (Asterias rubens, UniProt A0A8F2ZGB9).
T1 sequence (A0A8F2ZGB9 1-434): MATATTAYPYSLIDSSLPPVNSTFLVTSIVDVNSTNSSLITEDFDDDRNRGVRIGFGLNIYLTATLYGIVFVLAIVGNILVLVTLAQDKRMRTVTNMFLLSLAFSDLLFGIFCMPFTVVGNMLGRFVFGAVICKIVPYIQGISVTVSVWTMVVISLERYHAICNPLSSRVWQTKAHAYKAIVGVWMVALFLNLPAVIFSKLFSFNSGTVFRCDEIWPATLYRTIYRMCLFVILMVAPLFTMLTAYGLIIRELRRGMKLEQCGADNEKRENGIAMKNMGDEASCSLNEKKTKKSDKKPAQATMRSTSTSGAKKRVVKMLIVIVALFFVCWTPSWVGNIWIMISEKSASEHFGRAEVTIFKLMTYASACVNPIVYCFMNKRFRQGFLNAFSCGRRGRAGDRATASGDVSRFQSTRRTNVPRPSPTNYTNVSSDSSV
Kind of test: Aequorin bioluminescence receptor assay in CHO-K1 cells (G5A) co-transfected with ArSK/CCKR and human Gα16. Type of test: cell-based. Particulars: 10^–12 to 10^–4 M; at least three independent experiments in triplicate. The source says: To enable testing of ArSK/CCK1 and ArSK/CCK2 as candidate ligands for ArSK/CCKR, a full-length cDNA encoding ArSK/CCKR was synthesized by GenScript (Piscataway, NJ) and cloned into pcDNA 3.1+ vector (Invitrogen, Thermo Fisher Scientific, Waltham, MA). A partial Kozak translation initiation sequence (CACC) was introduced upstream to the start codon (ATG). CHO-K1 cells stably expressing the mitochondrial targeted calcium-sensitive bioluminescent reporter GFP-aequorin fusion protein (G5A) ([Baubet et al., 2000]) were used as a heterologous expression system for ArSK/CCKR. These cells have been used previously for neuropeptide receptor deorphanisation ([Bauknecht and Jékely, 2015]) and were generously supplied to us by Dr Gáspár Jékely (University of Exeter). The cell line was generated using the CHO-K1 cell line from Sigma-Aldrich (85051005; RRID: CVCL_0214), which is certified by the European Collection of Authenticated Cell Cultures (ECACC), and expression of the GFP-aequorin fusion protein (G5A) in the cell line was determined by functionality in displaying calcium-activated luminescence. […] Cells were cultured, co-transfected with the pcDNA 3.1+ vector containing the ArSK/CCKR cDNA sequence and plasmids encoding the promiscuous human G-protein Gα16. Then bioluminescence-based receptor assays were performed, as described previously for A. rubens luqin-type receptors ([Yañez-Guerra et al., 2018]).
[…] Concentration-response data were determined as a percentage of the highest response for each peptide (100% activation). EC50 values were calculated from concentration-response curves based on four to six independent transfections and averaging two to three replicates in each transfection using Prism 6.0 (RRID:SCR_002798; GraphPad software, La Jolla, CA). Cells transfected with an empty vector were used for control experiments.

For test [4], the system named is affinity-purified rabbit antibodies to ArSK/CCK1. Kind of test: ELISA specificity test of affinity-purified antibodies to ArSK/CCK1. Type of test: binding. The note with it: TEA fraction diluted 1:10; peptide 0.1 nmol (100 µl of 1 µM); mean of six replicates. The source says: To generate antibodies to ArSK/CCK1, an N-terminally truncated peptide analog of ArSK/CCK1 with the addition of a reactive N-terminal lysine residue was synthesized (KY(SO3H)GHGLFW-NH2 , Peptide Protein Research Ltd, Fareham, UK). To generate antibodies to ArSK/CCKR, a peptide corresponding to the C-terminal 15 amino acids of ArSK/CCK-R with addition of an N-terminal reactive lysine residue was synthesized (KPSPTNYTNVSSDSSV, Peptide Protein Research Ltd, Fareham, UK). These peptides were conjugated to porcine thyroglobulin (Sigma-Aldrich, Gillingham, UK) as a carrier protein using 5% glutaraldehyde (Sigma-Aldrich, Gillingham, UK) in phosphate buffer (0.1 M; pH 7.2) and the conjugate was used for immunisation of a rabbit for ArSK/CCK1 (70-day protocol; Charles River Biologics, Romans, France) and a guinea pig for ArSK/CCKR (56-day protocol; Charles River Biologics, Romans, France). The antigens were emulsified in Freund’s complete adjuvant for primary immunisations (~100 nmol antigen peptide) and in Freund’s incomplete adjuvant for three booster immunisations (~50 nmol antigen peptide). The presence of antibodies to the antigen peptides in post-immunisation serum samples was assessed using an enzyme-linked immunosorbent assay (ELISA), in comparison with pre-immune serum (Figure 5—figure supplement 1a; Figure 6—figure supplement 1). Antibodies to the antigen peptides were purified from the final bleed antiserum by affinity purification using the AminoLink Plus Immobilization Kit (Thermo Fisher Scientific, Waltham, MA), with bound antibodies eluted using glycine elution buffer (6.3 ml of 100 mM glycine [VWR Chemicals, Leicestershire, UK] and 0.7 ml of Tris [1 M, pH = 7.0]) and […] (TEA) elution buffer (6.3 ml of TEA [Sigma-Aldrich, Gillingham, UK] and 0.7 ml of Tris [1 M, pH = 7.0]). Eluates were dialyzed and sodium azide (0.1%) was added for long-term storage of the affinity-purified antibodies at 4°C. The specificity of ArSK/CCK1 antibodies eluted with TEA, which were subsequently used for immunohistochemistry (see below), was assessed by ELISA by testing them at a concentration of 1:10 with the following synthetic peptides (100 µl at a concentration of 1 µM dissolved in carbonate/bicarbonate buffer [25 mM sodium carbonate, 25 mM sodium bicarbonate, pH = 9.8]): ArSK/CCK1, ArSK/CCK2, ArSK/CCK2(ns) and the A. rubens luqin-type peptide ArLQ (Figure 5—figure supplement 1b). The rabbit antiserum to ArSK/CCK1 has been assigned the RRID:AB_2877176 and the guinea pig antiserum to ArSK/CCKR has been assigned the RRID:AB_2891354.

Test [5] has as its target Asterias rubens SK/CCK-type receptor (ArSK/CCKR) (Asterias rubens).

Like-named read-outs stand apart in the source and are kept apart here. Square brackets hold non-standard residues; d marks the D form. Ends that are not written are not given here. * marks the point of attachment. pGlu = O=C1CC[C@@H](C(=O)O)N1; SO3H = O=S(=O)(O)*

In the case of NGFFYamide, the “effect on everted cardiac stomach when injected in vivo” value in the test on Asterias rubens [1] (ref Semmens et al., 2013) was “retraction of the everted stomach”. Moreover, the “effect on cardiac stomach in vitro” value in test [2] (ref Semmens et al., 2013) is recorded as “triggers contraction”. Further, the “onset of feeding on prey (mussels)” value in the test with Asterias rubens [3] was “significant delay in the onset of feeding”. Regarding “GGGVPHVFQSGGIF-NH2 [ArTK2, A. rubens tachykinin-like peptide ([…]-NH2), reference compound]”, the “activation of ArSK/CCKR (luminescence)” value on ArSK/CCKR is “inactive”. Consider “EEKTRFPKFMRW-NH2 [ArLQ, A. rubens luqin-type neuropeptide …-NH2, reference compound]”, for which, in test [4], the “ELISA reactivity (optical density) with antibodies to ArSK/CCK1” value is listed as “do not cross-react”. With “SGPYSFNSGLTF-NH2 [S2, SALMFamide neuropeptide S2 (…-NH2)]”, on ArSK/CCKR, the “activation of ArSK/CCKR (luminescence)” value is “inactive”. For the same molecule, in the test on Asterias rubens [1] (ref Melarange et al., 1999), the “effect on cardiac stomach when injected in vivo” value is reported as “trigger cardiac stomach eversion”. Moreover, in test [2] (ref Melarange et al., 1999), the “effect on cardiac stomach in vitro” value is reported as “cause relaxation”. As to asterotocin, the “effect on cardiac stomach when injected in vivo” value with Asterias rubens [1] (ref Odekunle et al., 2019) is listed as “trigger cardiac stomach eversion”. The “effect on cardiac stomach in vitro” value in test [2] (ref Odekunle et al., 2019) is “cause relaxation”.

B1: ArSK/CCK2 (Asterias rubens sulfakinin/cholecystokinin-type neuropeptide 2), GGDDQY(SO3H)GFGLFF-NH2 (peptide)
peptide: GGDDQY(SO3H)GFGLFF-NH2
modifications: N-terminus assumed
SMILES: CC(C)C[C@H](NC(=O)CNC(=O)[C@H](Cc1ccccc1)NC(=O)CNC(=O)[C@H](Cc1ccc(OS(=O)(=O)O)cc1)NC(=O)[C@H](CCC(N)=O)NC(=O)[C@H](CC(=O)O)NC(=O)[C@H](CC(=O)O)NC(=O)CNC(=O)CN)C(=O)N[C@@H](Cc1ccccc1)C(=O)N[C@@H](Cc1ccccc1)C(N)=O
With B1, the EC50 of concentration-dependent luminescence (calcium, GFP-aequorin G5A) in CHO-K1 cells transfected with ArSK/CCKR and human Gα16 in test [5] came out at 0.12 nM.

B2: ArSK/CCK1 (Asterias rubens sulfakinin/cholecystokinin-type neuropeptide 1), pQSKVDDY(SO3H)GHGLFW-NH2 (peptide)
peptide: [pGlu]SKVDDY(SO3H)GHGLFW-NH2
SMILES: CC(C)C[C@H](NC(=O)CNC(=O)[C@H](Cc1c[nH]cn1)NC(=O)CNC(=O)[C@H](Cc1ccc(OS(=O)(=O)O)cc1)NC(=O)[C@H](CC(=O)O)NC(=O)[C@H](CC(=O)O)NC(=O)[C@@H](NC(=O)[C@H](CCCCN)NC(=O)[C@H](CO)NC(=O)[C@@H]1CCC(=O)N1)C(C)C)C(=O)N[C@@H](Cc1ccccc1)C(=O)N[C@@H](Cc1c[nH]c2ccccc12)C(N)=O
On to B2, for which the EC50 of concentration-dependent luminescence (calcium, GFP-aequorin G5A) in CHO-K1 cells transfected with ArSK/CCKR and human Gα16 in test [5] is 0.25 nM. Turning to GGDDQYGFGLFF-NH2 [ArSK/CCK2(ns), non-sulphated form of ArSK/CCK2, …-NH2], the EC50 of concentration-dependent luminescence (calcium, GFP-aequorin G5A) in CHO-K1 cells transfected with ArSK/CCKR and human Gα16 in test [5] turned out to be 48000 nM.

Values taken from PMC8428848, “Ancient role of sulfakinin/cholecystokinin-type signalling in inhibitory regulation of feeding processes revealed in an echinoderm” (eLife, 2021).
